Numbered stars: 1 amine (or outer) side, 2 acyl side, 3 side chain; on linkers, the order of the positions; unused ones are H or OH. Bridge positions count the residues as written; N and C are the ends. Square brackets hold non-standard residues; d marks the D form. Peptide text beside a SMILES is read from it. * marks the point of attachment. X1 = CC[C@H](C)[C@@H](N[*:1])[C@@H](O)CC(=O)O[C@H](C(=O)[C@H](C)C(=O)[*:2])C(C)C; X7 = CCC(C)C(N[*:1])C(O)CC(=O)OC(C(=O)C(C)C(=O)[*:2])C(C)C; NMeY = CN[CH](Cc1ccc(O)cc1)C(=O)O; dNMeL = CN[C@H](CC(C)C)C(=O)O; NMeL = CN[CH](CC(C)C)C(=O)O; Isobutyryl = CC(C)C(=O)*; Pyruvoyl = CC(=O)C(=O)*; Cbz = O=C(OCc1ccccc1)*; Butyryl = CCCC(=O)*
Legend:
[1] = system: Balb/c splenocytes (resting lymphocytes); experiment: Lymphocyte viability (LcV) assay; assay type: cell-based, murine; conditions: unstimulated Balb/c splenocytes, MTT
Method: Forty two (42) didemnin compounds (see Table 1) were evaluated for cytotoxicity to one of the lymphocyte populations in the MLR (i.e., Balb/c splenocytes). The purpose of the lymphocyte viability assay (LcV) is to measure metabolic activity in lymphocytes after they have been exposed to the compounds for the duration of an under conditions equivalent to the MLR. The inverse of the data yields cytotoxicity information about the compounds on murine lymphocytes. The rationale of using resting cells, in this case unstimulated lymphocytes, to measure cytotoxicity has a strategic importance. In the MLR the heterogenous cell populations are predominantly resting cells when the assay begins.
Test compounds were prepared in two sets as described above. Splenocytes were prepared as described previously from one murine strain (Balb/c), and a volume of 200 μL of the cell suspension was added to one set of test compounds and control wells.
Assay plates were incubated as in the MLR and then pulsed overnight 75 μL per well MTT-thiazolyl blue solution (150 μg). The plates were decanted and the resulting insoluble formazan crystals were dissolved in 200 μL of isopropyl alcohol. Absorbance at 570 nm was measured.
The LcV data were calculated as a percentage of basal metabolic activity, or percent viability, relative to BALB/c control, and an LC50 value was interpolated for each test compound.

[2] = system: concanavalin A-induced lymphoblasts (Con A splenocytes); experiment: Lymphoblast viability (LbV) assay; conditions: Con A-stimulated splenocytes (lymphoblasts), MTT
[3] = system: murine splenocytes (Balb/c and C57B1/6); experiment: Two-way mixed lymphocyte reaction (MLR) assay; conditions: Balb/c + C57B1/6 splenocytes, 96 h, [3H]thymidine; for IC50: read-out: two-way mixed lymphocyte reaction (MLR) suppression MLR, IC50;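 for all read-outs here: proliferation read as tritiated thymidine incorporation into newly made DNA after an overnight pulse, expressed as percent of control activity, IC50 interpolated per compound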

| SMILES | cytoxicity to lymphocytes LcV, LC50 [1] | cytoxicity to lymphocytes LcV, LC50 ([1]; highest concentration 10 μg/mL) | cytotoxicity to lymphocytes LbV, LC50 [2] | two-way mixed lymphocyte reaction (MLR) suppression MLR, IC50 [3] | IC50 [3] |
| --- | --- | --- | --- | --- | --- |
| CC[C@H](C)[C@H]1NC(=O)[C@@H](NC(=O)[C@@H](CC(C)C)N(C)C(C)=O)[C@@H](C)OC(=O)[C@H](Cc2ccc(OC)cc2)N(C)C(=O)[C@@H]2CCCN2C(=O)[C@H](CC(C)C)NC(=O)[C@@H](C)C(=O)[C@H](C(C)C)OC(=O)C[C@@H]1O [Compound 18, N^α -Acetyldidemnin A] (Ac-[dNMeL]T[X1]LP[NMeY](Me); ester 2-C) | > 10000 nM | > 10000 ng/mL | 0.39 nM | 0.027 ng/mL | 0.027 nM |
| CC[C@H](C)[C@H]1NC(=O)[C@@H](NC(=O)[C@@H](CC(C)C)N(C)C(=O)[C@@H]2CCCN2)[C@@H](C)OC(=O)[C@H](Cc2ccc(OC)cc2)N(C)C(=O)[C@@H]2CCCN2C(=O)[C@H](CC(C)C)NC(=O)[C@@H](C)C(=O)[C@H](C(C)C)OC(=O)C[C@@H]1O [Compound 28, N^α -(L-Pro)Didemnin A] (H-P[dNMeL]T[X1]LP[NMeY](Me); ester 3-C) | > 9600 nM | > 10000 ng/mL | 5.1 nM | 1.00 ng/mL | 0.96 nM |
| CCCC(=O)N(C)C(CC(C)C)C(=O)NC1C(=O)NC(C(C)CC)C(O)CC(=O)OC(C(C)C)C(=O)C(C)C(=O)NC(CC(C)C)C(=O)N2CCCC2C(=O)N(C)C(Cc2ccc(OC)cc2)C(=O)OC1C (stereo not drawn) [Compound 20, N^α -n-Butyryldidemnin A] (Butyryl-[NMeL]T[X7]LP[NMeY](Me); ester 2-C; configuration not given here) | 99 nM |  | 0.074 nM | 0.30 ng/mL | 0.3 nM |
| CC[C@H](C)[C@H]1NC(=O)[C@@H](NC(=O)[C@@H](CC(C)C)N(C)C(=O)[C@H]2CCCN2C(=O)C(C)C)[C@@H](C)OC(=O)[C@H](Cc2ccc(OC)cc2)N(C)C(=O)[C@@H]2CCCN2C(=O)[C@H](CC(C)C)NC(=O)[C@@H](C)C(=O)[C@H](C(C)C)OC(=O)C[C@@H]1O [Compound 34, [Isobutyryl^9, D-Pro^8] Didemnin B] (Isobutyryl-[dP][dNMeL]T[X1]LP[NMeY](Me); ester 3-C) | 5600 nM | 6200 ng/mL | 4.81 nM | 0.67 ng/mL | 0.6 nM |
| CC[C@H](C)[C@H]1NC(=O)[C@@H](NC(=O)[C@@H](CC(C)C)N(C)C(=O)[C@@H]2CCCN2C(=O)[C@H](C)O)[C@@H](C)OC(=O)[C@H](Cc2ccc(OC)c(I)c2)N(C)C(=O)[C@@H]2CCCN2C(=O)[C@H](CC(C)C)NC(=O)[C@@H](C)C(=O)[C@H](C(C)C)OC(=O)C[C@@H]1O [Compound 14, Iododidemnin B] | > 8100 nM | > 10000 ng/mL | 0.82 nM | 0.81 ng/mL | 0.66 nM |
| CC[C@H](C)[C@@H](NC(=O)[C@@H](NC(=O)[C@@H](CC(C)C)NC)[C@@H](C)O)[C@@H](O)CC(=O)O[C@H](C(=O)[C@H](C)C(=O)N[C@@H](CC(C)C)C(=O)N1CCC[C@H]1C(=O)N(C)[C@@H](Cc1ccc(OC)cc1)C(=O)O)C(C)C [Compound 17, Acyclodidemnin A] (H-[dNMeL]T[X1]LP[NMeY](Me)-OH) | > 10400 nM | > 10000 ng/mL | 240 nM | 0.54 ng/mL | 0.57 nM |
| CC[C@H](C)[C@H]1NC(=O)[C@@H](NC(=O)[C@@H](CC(C)C)N(C)C(=O)[C@@H]2CCCN2C(=O)C(C)=O)[C@@H](C)OC(=O)[C@H](Cc2ccc(OC)cc2)N(C)C(=O)[C@@H]2CCCN2C(=O)[C@H](CC(C)C)NC(=O)[C@@H](C)C(=O)[C@H](C(C)C)OC(=O)C[C@@H]1O [Compound 30, dehydrodidemnin B] (Pyruvoyl-P[dNMeL]T[X1]LP[NMeY](Me); ester 3-C) | 2600 nM | 2900 ng/mL | 0.079 nM | 0.43 ng/mL | 0.38 nM |
| CC[C@H](C)[C@H]1NC(=O)[C@@H](NC(=O)[C@@H](CC(C)C)N(C)C(=O)OCc2ccccc2)[C@@H](C)OC(=O)[C@H](Cc2ccc(OC)cc2)N(C)C(=O)[C@@H]2CCCN2C(=O)[C@H](CC(C)C)NC(=O)[C@@H](C)C(=O)[C@H](C(C)C)OC(=O)C[C@@H]1O [Compound 3, Z-Didemnin A] (Cbz-[dNMeL]T[X1]LP[NMeY](Me); ester 2-C) | 7500 nM | 8100 ng/mL | 1.9 nM | 1.10 ng/mL | 1.02 nM |
